Reference: patent publication US6444670B2 (Wyeth, priority 1998, dated 2002)

What was measured:
[1] = target: T1, Human recombinant PTP1B (hPTP1B) (Homo sapiens, UniProt P18031); format: biochemical
T1 construct: made in house
T1 sequence (P18031 1-435): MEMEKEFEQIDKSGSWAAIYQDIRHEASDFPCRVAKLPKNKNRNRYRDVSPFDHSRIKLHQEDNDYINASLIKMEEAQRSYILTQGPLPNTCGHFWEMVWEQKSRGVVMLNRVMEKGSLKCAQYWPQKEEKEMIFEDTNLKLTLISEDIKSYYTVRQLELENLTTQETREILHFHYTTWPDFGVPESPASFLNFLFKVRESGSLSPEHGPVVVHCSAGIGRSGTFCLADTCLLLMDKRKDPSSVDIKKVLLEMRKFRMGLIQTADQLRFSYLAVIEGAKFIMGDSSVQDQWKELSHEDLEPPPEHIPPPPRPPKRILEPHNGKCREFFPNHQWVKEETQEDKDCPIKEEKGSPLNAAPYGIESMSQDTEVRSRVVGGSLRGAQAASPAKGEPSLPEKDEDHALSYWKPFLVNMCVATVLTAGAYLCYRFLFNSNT

[2] = tested on: rat hepatic microsomal PTPases; settings: 50 μM compound

Compound	IC50 [1] [nM]	% Change from Control [2] [%]
9-Bromo-4-(3-bromo-methoxy-5-nitro-phenyl)-2,3-dimethyl-naphtho[2,3-b]thiophene [Example 57]	1900	
Cc1sc2c(Br)c3ccccc3c(-c3cc(N)c(O)c(Br)c3)c2c1C [Example 23, 2-Amino-6-bromo-4-(9-bromo-2,3-dimethyl-naphtho[2,3-b]thiophen-4-yl)-phenol]	743	−26.11
Cc1c(CN2CCOCC2)sc2c(Br)c3ccccc3c(-c3cc(Br)c(OC(C)C(=O)O)c(Br)c3)c12 (stereo not shown) [Example 36, 2-[2,6-Dibromo-4-(9-bromo-3-methyl-2-morpholin-4-ylmethyl-naphtho[2,3-b]thiophen-4-yl)-phenoxy]-propionic acid]	1340	−67.00
CCN(CC)Cc1sc2c(Br)c3ccccc3c(-c3cc(Br)c(O[C@H](Cc4ccccc4)C(=O)O)c(Br)c3)c2c1C [Example 37, (R)-2-[2,6-Dibromo-4-(9-bromo-2-diethylaminomethyl-3-methyl-naphtho[2,3-b]thiophen-4-yl)-phenoxy]-3-phenyl-propionic acid]	352	−49.83
Cc1sc2cc3ccccc3c(-c3ccc(O[C@H](Cc4ccccc4)C(=O)O)c(C(C)C)c3)c2c1C [Example 41, (R)-2-[4-(2,3-dimethyl-naphtho[2,3-b]thiophen-4-yl)-2-isopropyl-phenoxy]-3-phenyl-propionic acid]	729	−39.60
Cc1cc(-c2c3ccccc3cc3sc(C)c(C)c23)cc(C)c1O[C@H](Cc1ccccc1)C(=O)O [Example 46, (R)-2-[4-(2,3-Dimethyl-naphtho[2,3-b]thiophen-4-yl)-2,6-dimethyl-phenoxy]-3-phenyl-propionic acid]	1190	−91.00
Cc1sc2cc3ccccc3c(-c3cc(C(C)C)c(O[C@H](Cc4ccccc4)C(=O)O)c(C(C)C)c3)c2c1C [Example 50, (R)-2-[4-(2,3-Dimethyl-naphtho[2,3-b]thiophen-4-yl)-2,6-diisopropyl-phenoxy]-3-phenyl-propionic acid]	457	−81.27
Cc1sc2cc3ccccc3c(-c3ccc(O[C@H](Cc4ccccc4)C(=O)O)c(F)c3)c2c1C [Example 51, (R)-2-[4-(2,3-Dimethyl-naphtho[2,3-b]thiophen-4-yl)-2-fluoro-phenoxy]-3-phenyl-propionic acid]	2210	
Cc1oc2cc3ccccc3c(-c3cc(Br)c(O[C@H](Cc4ccccc4)C(=O)O)c(Br)c3)c2c1C [Example 54, (2R)-2-[2,6-Dibromo-4-(2,3-dimethyl-naphtho[2,3-b]furan-4-yl)-phenoxy]-3-phenyl-propionic acid]	982	
Cc1sc2c(Br)c3ccccc3c(-c3ccc(O[C@H](Cc4ccccc4)C(=O)O)cc3)c2c1C [Example 64, (2R)-2-[4-(9-Bromo-2,3-dimethyl-naphtho[2,3-b]thiophen-4-yl)-phenoxy]-3-phenyl-propionic acid]	390	
CCc1cc(-c2c3ccccc3c(Br)c3oc(C)c(C)c23)cc(CC)c1O[C@H](Cc1ccccc1)C(=O)O [Example 70, (R)-2-[4-(9-Bromo-2-,3-dimethyl-naphtho[2,3-b]furan-4-yl)-2.6-diethyl-phenoxy]-3-phenyl-propionic acid]	330	
Cc1sc2cc3ccccc3c(-c3ccc(O[C@H](C)C(=O)O)c(C4CCCC4)c3)c2c1C [Example 71, (R)-2-[2-Cyclopentyl-4-(2-,3-dimethyl-naphtho[2,3-b]thiophen-4-yl)-phenoxy]-propionic acid]	1190	
Cc1sc2c(Br)c3ccccc3c(-c3ccc(O[C@H](C)C(=O)O)c(C4CCCC4)c3)c2c1C [Example 72, (R)-2-[4-(9-Bromo-2-,3-dimethyl-naphtho[2,3-b]thiophen-4-yl)-2-cyclopentyl-phenoxy]-propionic acid]	480	
CCc1cc(-c2c3ccccc3cc3sc(C)c(C)c23)ccc1O[C@H](Cc1ccccc1)C(=O)O [Example 76, (R)-2-[4-(2-,3-Dimethyl-naphtho[2,3-b]thiophen-4-yl)-2-ethyl-phenoxy]-3-phenyl-propionic acid]	450	
CCc1cc(-c2c3ccccc3cc3oc(C)c(C)c23)cc(Br)c1O[C@H](Cc1ccccc1)C(=O)O [Example 79, (R)-2-[2-Bromo-4-(2-,3-dimethyl-naphtho[2,3-b]furan-4-yl)-6-ethyl-phenoxy]-3-phenyl-propionic acid]	780	
Ammonium molybdate tetrahydrate [reference compound]	8700	
[2-Bromo-4-(9-bromo-2,3-dimethyl-naphtho[2,3-b]thiophen-4-yl)-2-nitro-phenoxy]-acetic acid [Example 24]		−65.31

The remaining lines, values ahead:

IC50 [1] [nM]	% Change from Control [2] [%]	Compound
100	−63.01	Cc1sc2c(Sc3ccccc3)c3ccccc3c(-c3cc(Br)c(O[C@H](C)C(=O)O)c(Br)c3)c2c1C [Example 34, (R)-2-[2,6-Dibromo-4-(2,3-dimethyl-9-phenylsulfanyl-naphtho[2,3-b]thiophen-4-yl)-phenoxy]-propionic acid]
299	−57.74	Cc1sc2c(Br)c3ccccc3c(-c3cc(Br)c(OC(Cc4ccccc4)C(=O)O)c([N+](=O)[O-])c3)c2c1C (stereo not shown) [Example 38, [2-Bromo-4-(9-bromo-2,3-dimethyl-naphtho[2,3-b]thiophen-4-yl)-2-nitro-phenoxy]-3-phenyl-propionic acid]
203	−94.50	Cc1sc2cc3ccccc3c(-c3ccc(O[C@H](Cc4ccccc4)C(=O)O)c(C4CCCC4)c3)c2c1C [Example 45, (R)-2-[2-Cyclopentyl-4-(2,3-dimethyl-naphtho[2,3-b]thiophen-4-yl)-phenoxy]-3-phenyl-propionic acid]
95	−68.48	Cc1sc2c(Br)c3ccccc3c(-c3ccc(O[C@H](Cc4ccccc4)C(=O)O)c(C4CCCC4)c3)c2c1C [Example 47]
287	−87.66	Cc1sc2c(Br)c3ccccc3c(-c3ccc(O[C@H](Cc4ccccc4)C(=O)O)c(F)c3)c2c1C [Example 52, (R)-2-[4-(9-Bromo-2,3-dimethyl-naphtho[2,3-b]thiophen-4-yl)-2-fluoro-phenoxy]-3-phenyl-propionic acid]
59		Cc1sc2c(Br)c3ccccc3c(-c3cc(C(C)C)c(O[C@H](Cc4ccccc4)C(=O)O)c(C(C)C)c3)c2c1C [Example 55, (2R)-2-[4-(9-Bromo-2,3-dimethyl-naphtho[2.3-b]thiophen-4-yl)-2,6-diisopropyl-phenoxy]-3-phenyl-propionic acid]
28		Cc1cc(-c2c3ccccc3c(Br)c3sc(C)c(C)c23)cc(C)c1O[C@H](Cc1ccccc1)C(=O)NCC(=O)O [Example 62, {(2R)-2-[4-(9-Bromo-2,3-dimethyl-naphtho[2,3-b]thiophen-4-yl)-2,6-dimethyl-phenoxy]-3-phenyl-propionylamino}-acetic acid]
138		CCc1cc(-c2c3ccccc3c(Br)c3sc(C)c(C)c23)cc(CC)c1O[C@H](Cc1ccccc1)C(=O)NCC(=O)O [Example 63, {(2R)-2-[4-(9-Bromo-2,3-dimethyl-naphtho[2,3-b]thiophen-4-yl)-2,6-diethyl-phenoxy]-3-phenyl-propionylamino}-acetic acid]
80		CCc1cc(-c2c3ccccc3cc3sc(C)c(C)c23)cc(CC)c1O[C@H](Cc1ccccc1)C(=O)NCC(=O)O [Example 68, {(2R)-2-[4-(2,3 -Dimethyl-naphtho[2,3-b]thiophen-4-yl)-2,6-diethyl-phenoxy]-3-phenyl-propionylamino}-acetic acid]
270		CCc1cc(-c2c3ccccc3cc3oc(C)c(C)c23)cc(Br)c1O [Example 78, 2-Bromo-4-(2-,3-dimethyl-naphtho[2,3-b]furan-4-yl)-6-ethyl-phenol]
130		CCCc1cc(-c2c3ccccc3c(Br)c3sc(C)c(C)c23)ccc1O[C@H](Cc1ccccc1)C(=O)O [Example 83, (R)-2-[4-(9-Bromo-2-,3-dimethyl-naphtho[2,3-b]thiophen-4-yl)-2-propyl-phenoxy]-3-phenyl-propionic acid]
320		CCN(CC)Cc1sc2c(Br)c3ccccc3c(-c3cc(C(C)C)c(O[C@H](Cc4ccccc4)C(=O)O)c(C(C)C)c3)c2c1C [Example 88, (2R)-2-[4-(9-Bromo-2-diethylaminomethyl-3-methyl-naphtho[2,3-b]thiophen-4-yl)-2,6-diisopropyl-phenoxy]-3-phenyl-propionic acid]
